Results on 13 molecules are retold here after paper PMC11820905, “Rational Design, Synthesis, and In Vitro Activity of Heterocyclic Gamma-Butyrobetaines as Potential Carnitine Acetyltransferase Inhibitors” (Molecules, 2025).

The structures appear in SMILES notation.

The target of the first test is T1, Carnitine acetyltransferase isolated from pigeon breast muscle (Columba livia, UniProt P52826).
T1 construct: CAT (isolated from pigeon breast muscle, ammonium sulfate suspension, CAS Number: 9029-90-7); purchased Sigma-Aldrich; host or cells: pigeon breast muscle (tissue-purified enzyme)
T1 sequence (P52826 31-627): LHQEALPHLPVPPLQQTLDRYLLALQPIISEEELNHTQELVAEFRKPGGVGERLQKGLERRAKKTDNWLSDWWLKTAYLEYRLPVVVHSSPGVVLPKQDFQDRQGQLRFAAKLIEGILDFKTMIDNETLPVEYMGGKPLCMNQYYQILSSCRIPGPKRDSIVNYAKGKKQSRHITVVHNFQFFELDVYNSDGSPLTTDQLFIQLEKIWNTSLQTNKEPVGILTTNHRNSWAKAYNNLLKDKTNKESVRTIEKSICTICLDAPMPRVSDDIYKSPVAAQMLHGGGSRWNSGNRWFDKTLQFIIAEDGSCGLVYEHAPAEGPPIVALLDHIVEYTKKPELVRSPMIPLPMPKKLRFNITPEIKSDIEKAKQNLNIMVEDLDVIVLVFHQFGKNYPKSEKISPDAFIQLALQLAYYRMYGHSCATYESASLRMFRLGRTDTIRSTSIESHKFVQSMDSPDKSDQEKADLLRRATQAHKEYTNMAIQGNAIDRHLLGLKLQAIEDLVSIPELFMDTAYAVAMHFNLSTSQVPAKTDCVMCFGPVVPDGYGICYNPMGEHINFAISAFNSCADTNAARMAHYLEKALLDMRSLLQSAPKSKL
Briefly: CAT inhibition, IC50 determination (DTNB/Ellman reaction, absorbance at 405 nm). In kind it is biochemical. The settings on record: c(L-carnitine) = 50.56 μM; 5 min preincubation at 37 °C; eight inhibitor concentrations, triplicate over three days. The text has this:
To assess the impact of the synthesized compounds on CAT activity and establish the structure-activity relationship, we initially determined the concentration needed to reduce the enzyme activity by 50% (IC50) under the same reaction conditions. We slightly modified a method proposed by Marquis and Fritz, which allows for the quantification of the consumed L-carnitine by observing its conversion to acetyl L-carnitine using a reaction with 5,5′-dithiobis-(2-nitrobenzoic acid) (DTNB or Ellman’s reagent) and CoA to produce 2-nitro-5-thiobenzoic acid (TNB). We opted to determine the IC50 at a substrate concentration that yields a [S]/Km ratio of about 0.01 (c(L-carnitine) = 50.56 μM and Km = 3.0 mM) to ensure that the IC50 is virtually independent of [S]. We also used a kinetic approach, measuring the reaction rate over a time interval Δt, during which the dependence is linear (approximately 10–15% substrate conversion). The readings were taken within the first minute after the reaction began, and the degree of inhibition was determined as described in Section 3.3.1. The IC50 values for each compound were obtained by analyzing the percentage inhibition at eight different inhibitor concentrations, with each measurement conducted in triplicate over three consecutive days. The average values of the IC50 obtained are outlined in Figure 4.
(§1) Carnitine acetyltransferase isolated from pigeon breast muscle, ammonium sulfate suspension (CAS Number: 9029-90-7), with activity 71 U/mg protein (1U converts 1 μmol L-carnitine and 1 μmol AcCoA in Acetylcarnitine and free CoA in 1 min) was diluted with phosphate buffer (0.5 M, pH = 7.6) to obtain stock solution with concentration 24 U/mL. Ellman reagent was freshly prepared just before use by dissolving 25 mg DTNB in 5 mL 1 mM solution of Na2EDTA in phosphate buffer (0.5 M, pH = 7.6), the final concentration of DTNB in this solution being 12.8 mM. AcCoA, L-carnitine, and each of the tested compounds were dissolved in distilled water in order to obtain desired stock solutions with concentration c (AcCoA) = 348.0 μM and c (L-carnitine) = 303.4 μM (for IC50 determination). Tris-buffer solution was prepared by dissolving Tris. HCl in distilled water and pH was adjusted with NaOH to pH = 7.6, the final concentration of the solution being 1 M. The final volume of the reaction mixture was 300 μL, which included 50 μL of each stock solution of CAT, AcCoA, L-carnitine, DTNB, Tris-buffer, and test compound. In control probes, 50 μL distilled water was added instead of test compound. A mixture of CAT, AcCoA, DTNB, Tris-buffer, and test compounds were incubated for 5 min at 37 °C. The reaction was initiated by adding L-carnitine, and the reaction rate was monitored by measuring the absorbance at 405 nm.
Inhibition activity was assessed by calculating the reaction rate during the initial minute, within the linear range of A/t, utilizing the following formula:%Inh = 100 × ((ΔA/Δt)control − (ΔA/Δt) Inh)/((ΔA/Δt) control)
To obtain preliminary data for the IC50 values, we initially screened each compound at a final concentration of 5 mM. […] The half-maximal inhibitory concentration (IC50) was determined by plotting the response (A) against the concentration (c) of the inhibitor. All analyses were performed in triplicate over three consecutive days, and the corresponding IC50 values were averaged.
(In general: DTNB colorimetry detects thiols as they appear.)
As usually defined, the IC50 is the concentration at which inhibition is half-maximal. A low value points to inhibition by little substance. Molecule `CCOC(=O)CCC[N+]1(C)CCCC1` [Compound 1-ester, 1-(4-ethoxy-4-oxobutyl)-1-methylpyrrolidin-1-ium bromide] showed an IC50 of 28.5 ± 0.6 mM. In the case of `CCOC(=O)CCC[N+]1(C)CCCCC1` [Compound 2-ester, 1-(4-ethoxy-4-oxobutyl)-1-methylpiperidin-1-ium bromide], 22.8 ± 1.8 mM corresponded to half-maximal inhibition (IC50). In turn, `CCOC(=O)CCC[N+]1(C)CCOCC1` [Compound 3-ester, 4-(4-ethoxy-4-oxobutyl)-4-methylmorpholin-4-ium bromide] showed an IC50 of 29.9 ± 1.5 mM. Still for that read-out and setting: as for `CN(C)c1cc[n+](CCCC(=O)[O-])cc1` [DMAP-GBB, 4-(4-(dimethylamino)pyridin-1-ium-1-yl)butanoate], the figure is 10.4 ± 1.5 mM; as for `CC[N+](C)(C)CCCC(=O)[O-]` [MeGBB, 4-(ethyldimethylammonio)butanoate, reference compound], 9.32 ± 0.47 mM; as for `CCOC(=O)CCC[N+](C)(C)CC` [MeGBB-ester, 4-ethoxy-N-ethyl-N,N-dimethyl-4-oxobutan-1-aminium bromide, reference compound], 21.6 ± 1.4 mM. `C[N+](C)(C)NCCC(=O)[O-]` [Meldonium, reference compound] came in with an IC50 of 11.4 mM.

As for `Cn1cc[n+](CCCC(=O)[O-])c1` [Mim-GBB, 4-(1-methyl-1H-imidazol-3-ium-3-yl)butanoate], it took 14 ± 0.9 mM to reach half-maximal inhibition (IC50).

For the molecule `C[N+]1(CCCC(=O)[O-])CCOCC1` [Morph-GBB, 4-(4-methylmorpholino-4-ium)butanoate], the midpoint of inhibition, the IC50, lay at 23.7 ± 2.2 mM. For `C[N+]1(CCCC(=O)[O-])CCCCC1` [Pip-GBB, 4-(1-methylpiperidin-1-ium-1-yl)butanoate], the 50% inhibitory concentration (IC50) turned out to be 5.78 ± 1.2 mM. With `O=C([O-])CCC[n+]1ccccc1` [Pyr-GBB, 4-(pyridin-1-ium-1-yl)butanoate], 43.6 ± 4.2 mM corresponded to half-maximal inhibition (IC50).

`C[N+]1(CCCC(=O)[O-])CCCC1` [Pyrr-GBB, 4-(1-methylpyrrolidin-1-ium-1-yl)butanoate]: half-maximal inhibition (IC50) required 14.1 ± 1.91 mM. This IC50 is about 3.1-fold lower than that of the molecule before. As for `O=C([O-])CCC[n+]1ccc2ccccc2c1` [i-qui-GBB, 4-(isoquinolin-2-ium-2-yl)butanoate], the IC50 was 2.24 ± 0.21 mM. Against the preceding molecule, the IC50 is about 6.3-fold lower.

Another test has as its target T1, Carnitine acetyltransferase isolated from pigeon breast muscle. Briefly: CAT enzyme kinetics, mechanism of inhibition and Ki. Type of test: biochemical. The settings on record: best fit: highest R^2, lowest AIC. The protocol:
Substrate concentrations were selected in the range of 0.2 to five times the Km value (Km = 0.3 mM) to facilitate effective inhibition detection at elevated levels while ensuring sufficient substrate availability for the reaction at increased inhibitor concentrations. […] The experiments enabled identification of the inhibition mechanism alongside calculations of Km, Vmax, and Ki. We utilized SigmaPlot version 12.5 (Systat Software Inc. San Jose, CA, USA), which incorporates modules for regression analysis and various inhibition models. The numerical results are summarized in Table 3, while the corresponding Lineweaver –Burk and Michaelis–Menten kinetic plots are available in the Supplementary Materials.
as §1, with “HCl in distilled water and pH was adjusted with NaOH to pH = 7.6, the final concentration of the solution being 1 M. The final volume of the reaction mixture was 300 μL, which included 50 μL of each stock solution of CAT, AcCoA, L-carnitine, DTNB, Tris-buffer, and test compound. In control probes, 50 μL distilled water was added instead of test compound. A mixture of CAT, AcCoA, DTNB, Tris-buffer, and test compounds were incubated for 5 min at 37 °C.” left out
The absorbance at 405 nm was measured every 6 s between the 30th second and the 3rd minute for all probes (in the linear range). The initial velocity (v0) was determined as the intercept of the velocity (v) versus time (t) graph. […]
For `O=C([O-])CCC[n+]1ccc2ccccc2c1` [i-qui-GBB, 4-(isoquinolin-2-ium-2-yl)butanoate], the “Type of inhibition of CAT” value is “competitive inhibitor”.

Staying with this test, now noted: competitive model, nonlinear regression (SigmaPlot); inhibitor 1.88 mM and 3.75 mM.
In general, Ki refers to the dissociation constant of the complex between target and ligand, obtained from inhibition or displacement. `O=C([O-])CCC[n+]1ccc2ccccc2c1` [i-qui-GBB, 4-(isoquinolin-2-ium-2-yl)butanoate]: the affinity corresponds to a Ki of 3.5 mM.

Still in this test, the particulars now being: inhibitor concentration 0.94 mM.
For the molecule `O=C([O-])CCC[n+]1ccc2ccccc2c1` [i-qui-GBB, 4-(isoquinolin-2-ium-2-yl)butanoate], the “Inhibition of CAT reaction rate versus blank samples” value was “lack of inhibition”.

A further test addresses CAT.
Assay: not given
Further details: method as in PMID 19912061. The settings on record: comparison value for the established drug; no kinetic study of it described here; no reference printed at the place (cf. ref 44); cited from earlier work.
Turning to `C[N+](C)(C)NCCC(=O)[O-]` [Meldonium, reference compound], the Ki was 1.63 mM.
